The subject of the assay is Cochliobolus miyabeanus. The assay can be described thus: Activity against brown spot of rice caused by Cochliobolus miyabeanus, protective application. Format: in vivo. Conditions: individual active compound, 16 ppm in the spray liquor, rice leaves, 6 days after inoculation. On the procedure:
The active compounds, separately or jointly, were prepared as a stock solution comprising 0.25% by weight of active compound in acetone or DMSO. 1% by weight of the emulsifier Uniperol® EL (wetting agent having emulsifying and dispersing action based on ethoxylated alkylphenols) was added to this solution, and the mixture was appropriately diluted with water to the desired concentration.
Use example—Activity against brown spot of rice caused by Cochliobolus miyabeanus, protective application
Leaves of rice seedlings of the cultivar “Tai-Nong 67” which had been grown in pots were sprayed to runoff point with an aqueous suspension having the concentration of active compound stated below. The next day, the plants were inoculated with an aqueous spore suspension of Cochliobolus miyabeanus. The test plants were then placed in climatized chambers at 22-24° C. and 95-99% relative atmospheric humidity for 6 days. The extent of the development of infection on the leaves was then determined visually.
Evaluation is carried out by determining the infected leaf areas in percent. These percentages were converted into efficacies.
The efficacy (E) is calculated as follows using Abbot's formula: […]
The expected efficacies of the mixtures of active compounds are determined using Colby's formula [R. S. Colby, Weeds, 15, 20-22 (1967)] and are compared with the observed efficacies. […]

We go through 1 compound from patent US20080255158A1, “Fungicidal Mixtures” (BASF Aktiengesellschaft, priority 2004, published 2008).

Each structure is given as a SMILES string.

Take `CC1CCN(c2c(-c3c(F)cc(F)cc3F)c(Cl)nc3ncnn23)CC1` [compound I, 5-chloro-7-(4-methylpiperidin-1-yl)-6-(2,4,6-trifluorophenyl)[1,2,4]tri-azolo[1,5-a]pyrimidine]: the “Efficacy in % of the untreated control” value is 54%.
